Source: patent US7601746B2 (Shionogi & Co., Ltd., priority 2003, dated 2009)

Target: T1, human TPO receptor (hTPOR) (Homo sapiens, UniProt P40238)
T1 construct: expressed in transfected cells; host or cells: BaF-B03 (murine IL-3 dependent cell line)
T1 sequence (P40238 26-635): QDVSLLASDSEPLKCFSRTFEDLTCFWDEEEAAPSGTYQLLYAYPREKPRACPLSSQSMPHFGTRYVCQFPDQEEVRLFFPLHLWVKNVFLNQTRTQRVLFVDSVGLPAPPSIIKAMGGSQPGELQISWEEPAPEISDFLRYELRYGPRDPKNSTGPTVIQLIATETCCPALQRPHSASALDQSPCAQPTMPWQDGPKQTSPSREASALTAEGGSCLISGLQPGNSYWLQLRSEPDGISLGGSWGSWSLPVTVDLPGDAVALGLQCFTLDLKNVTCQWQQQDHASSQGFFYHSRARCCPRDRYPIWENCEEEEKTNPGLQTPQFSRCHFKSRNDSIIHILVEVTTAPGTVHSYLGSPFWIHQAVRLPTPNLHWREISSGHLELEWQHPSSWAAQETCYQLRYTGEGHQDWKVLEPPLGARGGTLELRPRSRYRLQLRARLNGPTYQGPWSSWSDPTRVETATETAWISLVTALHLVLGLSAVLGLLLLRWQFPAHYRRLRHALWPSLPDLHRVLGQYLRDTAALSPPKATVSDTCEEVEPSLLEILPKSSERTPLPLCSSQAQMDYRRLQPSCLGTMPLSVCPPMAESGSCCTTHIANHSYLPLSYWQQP
Test: Thrombopoietic activity: proliferation of TPO dependent BaF/hTPOR cells (WST-1, absorbance at 450 nm)
Type: cell-based
Details: 20 h + 4 h WST-1, ED50 = half concentration of the concentration showing the maximum thrombopoietic activity
Summary of the method: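 Proliferation read-out: WST-1 absorbance at 450 nm after 20 h compound exposure plus 4 h reagent, using IL-3-deprived BaF/hTPOR cells (5×10^4 per well) dependent on human TPO receptor signalling. ED50 defined as half the concentration producing maximal activity.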

| Compound | EC50 (Table 1) | EC50 (Table 2) |
| --- | --- | --- |
| CCCCCC(CCc1cccc(-c2csc(NC(=O)c3cc(Cl)c(C=C(C)C(=O)O)c(Cl)c3)n2)c1F)OC (stereo not shown) [Compound B73, 3-(2,6-dichloro-4-{4-[2-fluoro-3-(3-methyloxyoctyl)phenyl]thiazol-2-ylcarbamoyl}phenyl)-2-methylacrylic acid] | 1.35 nM | – |
| CCCCCOCc1cccc(-c2csc(NC(=O)c3cc(F)c(/C=C(\C)C(=O)O)c(F)c3)n2)c1OC [Compound B1884] | 16.9 nM | – |
| CCCCCOCc1cccc(-c2csc(NC(=O)c3cc(F)c(C=C(C)C(=O)O)c(F)c3)n2)c1F [Compound B33, 3-(2,6-difluoro-4-{4-[2-fluoro-3-(n-pentyloxymethyl)phenyl]thiazol-2-ylcarbamoyl}phenyl)-2-methylacrylic acid] | 3.33 nM | – |
| CCCCCCCCCC(OC)c1cccc(-c2csc(NC(=O)c3cc(Cl)c(C=C(C)C(=O)O)c(Cl)c3)n2)c1F (stereo not shown) [Compound B61, 3-(2,6-dichloro-4-{4-[2-fluoro-3-(1-methyloxydecyl)phenyl]thiazol-2-ylcarbamoyl}phenyl)-2-methylacrylic acid] | 0.76 nM | – |
| COc1c(CCCOCC(C)(C)C)cccc1-c1csc(NC(=O)c2cc(Cl)c(/C=C(\C)C(=O)O)c(Cl)c2)n1 [Compound B1833, (E)-3-[2,6-dichloro-4-(4-{3-[3-(2,2-dimethylpropyloxy)propyl)-2-methyloxyphenyl]thiazol-2-ylcarbamoyl}phenyl)-2-methylacrylic acid] | 19 nM | – |
| CCCCCCCCCC(OC)c1cccc(-c2csc(NC(=O)c3cc(Cl)c(/C=C(\C)C(=O)O)c(Cl)c3)n2)c1OC (stereo not shown) [Compound B1059, (E)-3-(2,6-dichloro-4-{4-[2-methyloxy-3-(1-methyloxydecyl)phenyl]thiazol-2-ylcarbamoyl}phenyl)-2-methylacrylic acid] | 3.2 nM | – |
| CCCCCCC(OC)c1cccc(-c2csc(NC(=O)c3cc(Cl)c(C=C(C)C(=O)O)c(Cl)c3)n2)c1F (stereo not shown) [Compound B68, 3-(2,6-dichloro-4-{4-[2-fluoro-3-(1-methyloxyheptyl)phenyl]thiazol-2-ylcarbamoyl}phenyl)-2-methylacrylic acid] | 0.82 nM | – |
| COc1c(COCCCC(C)C)cccc1-c1csc(NC(=O)c2cc(Cl)c(/C=C(\C)C(=O)O)c(Cl)c2)n1 [Compound B1940] | 18.8 nM | – |
| CC(=Cc1c(Cl)cc(C(=O)Nc2nc(-c3cccc(CCCOCCC(C)(C)C)c3F)cs2)cc1Cl)C(=O)O [Compound B85, 3-[2,6-dichloro-4-(4-[3-[3-(3,3-dimethylbutyloxy)propyl]-2-fluorophenyl]thiazol-2-ylcarbamoyl)phenyl]-2-methylacrylic acid] | 0.88 nM | – |
| CCC(CC)OCc1cccc(-c2csc(NC(=O)c3cc(F)c(/C=C(\C)C(=O)O)c(F)c3)n2)c1OC [Compound B1890, (E)-3-(4-{4-[3-(1-ethylpropyloxymethyl)-2-methyloxyphenyl]thiazol-2-ylcarbamoyl}-2,6-difluorophenyl)-2-methylacrylic acid] | 18.1 nM | – |
| CCCOC(c1cccc(-c2csc(NC(=O)c3cc(Cl)c(/C=C(\C)C(=O)O)c(Cl)c3)n2)c1OC)C1CCCCC1 (stereo not shown) [Compound B1102] | 2.86 nM | – |
| CO/C(=C\c1c(F)cc(C(=O)Nc2nc(-c3cccc(CCCOCC(C)(C)C)c3F)c(OC)s2)cc1F)C(=O)O [Compound B1904, (Z)-3-[4-(4-{3-[3-(2,2-dimethylpropyloxy)propyl]-2-fluorophenyl}-5-methyloxythiazol-2-ylcarbamoyl)-2,6-difluorophenyl]-2-methyloxyacrylic acid] | – | 24.6 nM |
| CCCCCCOCCC(OC)c1cccc(-c2csc(NC(=O)c3cc(Cl)c(C=C(C)C(=O)O)c(Cl)c3)n2)c1F (stereo not shown) [Compound B101, 3-(2,6-dichloro-4-{4-[2-fluoro-3-(3-n-hexyloxy-1-methyloxypropyl)phenyl]thiazol-2-ylcarbamoyl)phenyl]-2-methylacrylic acid] | 1.9 nM | – |
| CCCCOC(CC)c1cccc(-c2csc(NC(=O)c3cc(F)c(/C=C(\C)C(=O)O)c(F)c3)n2)c1OC (stereo not shown) [Compound B418, (E)-3-(4-{4-[3-(1-butyloxypropyl)-2-methyloxyphenyl]thiazol-2-ylcarbamoyl}-2,6-difluorophenyl)-2-methylacrylic acid] | 6.3 nM | – |
| CCC(CC)COCc1cccc(-c2csc(NC(=O)c3cc(F)c(/C=C(\OC)C(=O)O)c(F)c3)n2)c1OC [Compound B2024, (Z)-3-(4-{4-[3-(2-ethylbutyloxymethyl)-2-methyloxyphenyl]thiazol-2-ylcarbamoyl}-2,6-difluorophenyl)-2-methyloxyacrylic acid] | 9.96 nM | – |
| CCCCCOC(CCSC)c1cccc(-c2csc(NC(=O)c3cc(F)c(C=C(C)C(=O)O)c(F)c3)n2)c1F (stereo not shown) [Compound B16, 3-(2,6-difluoro-4-{4-[2-fluoro-3-(3-methylthio-1-n-pentyloxypropyl)phenyl]thiazol-2-ylcarbamoyl}phenyl)-2-methylacrylic acid] | 0.77 nM | – |
| COc1c(COCC(C)(C)C)cccc1-c1csc(NC(=O)c2cc(F)c(/C=C(\C)C(=O)O)c(F)c2)n1 [Compound B1933, (E)-3-(4-{4-[3-(2,2-dimethylpropyloxymethyl)-2-methyloxyphenyl]thiazol-2-ylcarbamoyl}-2,6-difluorophenyl)-2-methylacrylic acid] | 7.88 nM | – |
| CCCCCCCCCCOCc1cccc(-c2csc(NC(=O)c3cc(F)c(C=C(C)C(=O)O)c(F)c3)n2)c1F [Compound B32, 3-(2,6-difluoro-4-{4-[2-fluoro-3-(n-decyloxymethyl)phenyl]thiazol-2-ylcarbamoyl}phenyl)-2-methylacrylic acid] | 3.03 nM | – |
| CCCCCCOCCCc1cccc(-c2csc(NC(=O)c3cc(Cl)c(C=C(C)C(=O)O)c(Cl)c3)n2)c1F [Compound B96, 3-(2,6-dichloro-4-{4-[2-fluoro-3-(3-n-hexyloxypropyl)phenyl]thiazol-2-ylcarbamoyl)phenyl]-2-methylacrylic acid] | 0.78 nM | – |
| CCCCCCOCCC(OC)c1cccc(-c2csc(NC(=O)c3cc(F)c(C=C(C)C(=O)O)c(F)c3)n2)c1F (stereo not shown) [Compound B52, 3-(2,6-difluoro-4-{4-[2-fluoro-3-(3-n-hexyloxy-1-methyloxyproyl)phenyl]thiazol-2-ylcarbamoyl}phenyl)-2-methylacrylic acid] | 1.7 nM | – |
| CCOC(c1cccc(-c2csc(NC(=O)c3cc(F)c(C=C(C)C(=O)O)c(F)c3)n2)c1F)C(C)(C)C (stereo not shown) [Compound B10, 3-(2,6-difluoro-4-{4-[3-(1-ethyloxy-2,2-dimethylpropyl)-2-fluorophenyl]thiazol-2-ylcarbamoyl}phenyl)-2-methylacrylic acid] | 1.9 nM | – |
| CCCC(OCC)c1cccc(-c2csc(NC(=O)c3cc(F)c(C=C(C)C(=O)O)c(F)c3)n2)c1F (stereo not shown) [Compound B24, 3-(2,6-difluoro-4-{4-[3-(1-ethyloxybutyl)-2-fluorophenyl]thiazol-2-ylcarbamoyl}phenyl)-2-methylacrylic acid] | 1.97 nM | – |
| COc1c(CCOCC2CCCCC2)cccc1-c1csc(NC(=O)c2cc(F)c(/C=C(\C)C(=O)O)c(F)c2)n1 [Compound B1957] | 12.8 nM | – |
| CCC(CC)COCc1cccc(-c2csc(NC(=O)c3cc(F)c(/C=C(\C)C(=O)O)c(F)c3)n2)c1OC [Compound B2023, (E)-3-(4-{4-[3-(2-ethylbutyloxymethyl)-2-methyloxyphenyl]thiazol-2-ylcarbamoyl}-2,6-difluorophenyl)-2-methyl acrylic acid] | 6.45 nM | – |
| COc1c(CCOCCCCCl)cccc1-c1csc(NC(=O)c2cc(Cl)c(/C=C(\C)C(=O)O)c(Cl)c2)n1 [Compound B1963, (E)-3-[2,6-dichloro-4-(4-{3-[2-(4-chlorobutyloxy)ethyl]-2-methyloxyphenyl}thiazol-2-ylcarbamoyl)phenyl]-2-methylacrylic acid] | – | 28.6 nM |
| COc1c(COCCC(C)(C)C)cccc1-c1csc(NC(=O)c2cc(Cl)c(C=C(C)C(=O)O)c(Cl)c2)n1 (stereo in doubt) [Compound B1936, (Z)-3-(2,6-dichloro-4-{4-[3-(3,3-dimethylbutyloxymethyl)-2-methyloxyphenyl]thiazol-2-ylcarbamoyl}phenyl)-2-methylacrylic acid] | 17.1 nM | – |
| CC(=Cc1c(F)cc(C(=O)Nc2nc3c(s2)CCc2c(CCC(C)(C)C)cccc2-3)cc1F)C(=O)O [Compound A3, 3-{2,6-difluoro-4-[4,5-dihydro-6-(3,3-dimethylbutyl)naphtho[1,2-d]thiazol-2-ylcabamoyl)phenyl]-2-methylacrylic acid] | 4 nM | – |
| CCCCCCOC(c1cccc(-c2csc(NC(=O)c3cc(F)c(/C=C(\C)C(=O)O)c(F)c3)n2)c1OC)C1CCCCC1 (stereo not shown) [Compound B519] | 1.03 nM | – |
